Reference: PubChem BioAssay AID2060493 (Molecular Pharmacology Branch, DTP, NCI, 2025)
Where “and” joins values, the source holds several entries; their conditions need not be identical. Equal entries are not always repeated.

System: 616215-338-R-J1-PDC tumor spheroids, viability
Assay: Anticancer human tumor 616215-338-R-J1-PDC patient-derived colon adenocarcinoma cell line growth inhibition [GQUAD]
Details: spheroids with HUVEC and MSC; for viability, T/C: stronger effect = lower value
Text: DNA G-quadruplex Stabilizer Agents in Combinations in Complex Spheroids
A high-throughput screen of multi-cell type tumor spheroids was designed to identify active combinations of DNA G-quadruplex stabilizer agents and targeted small molecules. Complex spheroids include a stromal component modeled by human endothelial cells (HUVEC) and fibroblasts modeled by human mesenchymal stem cells (MSCs). The concentration ranges selected for each drug and investigational agent were based upon clinically achievable concentrations if the clinical Cmax of the agent was known.
Compounds. The drugs and investigational agents: pidnarulex (CX-5461; NSC782164), APTO-253 (NSC789042), BRACO-19 (NSC847499), peposertib (NSC802822), ceralasertib (NSC780249), elimusertib (NSC800525), camonsertib (NSC841442), AZD-1390 (NSC803789), olaparib (NSC753686), talazoparib (NSC767125), ART-558 (NSC835418), sotorasib (NSC818433), MRTX-1133 (NSC836407), SN-38 (NSC673596), topotecan (NSC609699), etoposide (NSC141540), doxorubicin (NSC123127), gemcitabine (NSC613327), 5-fluorouracil (NSC19893), paclitaxel (NSC125973), vemurafenib (NSC761431), panobinostat (NSC761190), R-306465 (JNJ-16241199; NSC773264), adavosertib (NSC754352), TP-3654 (NSC805149), carboplatin (NSC241240), KSQ-4279 (NSC840948), and staurosporine (NSC755774) were obtained from the National Cancer Institute (NCI) Developmental Therapeutics Program Chemical Repository (34). The FDA-approved anticancer drug set is available from the NCI Developmental Therapeutics Program. […] The stock solutions were prepared in dimethyl sulfoxide (DMSO, Sigma-Aldrich, St. Louis, MO, cat. D2650) at 800-fold the tested concentration and stored at -70 degrees C prior to their use. All drugs and investigational agents were tested over a range starting from a high concentration at or near the clinical Cmax and decreasing in half-log increments. If the clinical Cmax for an agent had not been determined, the highest concentration tested was 10 microM.
2.3 Cell Culture. All cells were maintained in an incubator at 37 degrees C and 5% CO2 with 95% humidity. The PDC lines were cultured according to standard operating procedures established by the NCI PDMR. All PDCs were thawed and cultured in Matrigel-coated flasks prepared with a working solution of 1X Ham's F-12 nutrient mix, without supplementation (Invitrogen, cat. 11765054), 100 U/mL penicillin-streptomycin (Invitrogen, cat. 15140122), and 2.5% Matrigel (Corning Inc., cat. 354248) for the first three passages. The 857933-349-R-J2-PDC line was cultured in 6C/Colon 1B media, which includes advanced DMEM/F-12 (Thermo Fisher Scientific, cat. 12634028), 10 mM HEPES (Thermo Fisher Scientific, cat. 15630080), 1X GlutaMAX supplement (Thermo Fisher Scientific, cat. 35050061), 0.1 mg/mL primocin (InvivoGen, cat. ant-pm-2), 10% defined fetal bovine serum, heat inactivated (HyClone Laboratories Inc., cat. SH30070.03HI), 50% L-WRN conditioned media (ATCC, cat. CRL-3276), 1.25 mM N-Acetyl-L-cysteine (Sigma-Aldrich, cat. A9165), 10 mM nicotinamide (Sigma-Aldrich, cat. N0636), 1X B-27 supplement (Thermo Fisher Scientific, cat. 17504044), 1X N-2 supplement (Thermo Fisher Scientific, cat. 17502048), 10 microM Y-27632 dihydrochloride (Tocris Bioscience, cat. 1254), and 50 ng/mL human EGF recombinant protein (Thermo Fisher Scientific, cat. PHG0311). The 485176-168-R4-J1-PDC line was cultured in Panc media, which includes all 6C/Colon 1B media components plus 100 ng/mL human FGF-10 (Thermo Fisher Scientific, cat. 100-26), 500 nM SB-431542 (Selleckchem, cat. S1067), and gastrin (Tocris, cat. 3006).
[…]
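Further: spheroids exposed to agents for 7 days before readout.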
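Wherever viability, T/C is given: percent viability relative to DMSO vehicle control wells taken as 100%.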

Row | IC50 (curve of compound) | IC50 (compound alone, run of 04/16/2024) [nM] | IC50 (compound alone, run of 04/22/2024) [nM] | Structure (SMILES) | viability, T/C (compound 0.0316 µM) | viability, T/C (compound 0.1 µM) | viability, T/C (compound 0.316 µM) | viability, T/C (compound 1 µM) | viability, T/C (compound 3.16 µM) | viability, T/C (compound 10 µM) | viability, T/C (compound 0.000999 µM) | viability, T/C (compound 0.00316 µM) | viability, T/C (compound 0.00999 µM) | viability, T/C (compound 0.0999 µM)
1 | > 10000 nM and 9780 nM | – | – | COc1ccc([C@@H](O)c2cc(-c3ncnc4cc(N5CCOCC5)ccc34)c(F)cc2Cl)nn1 | 115% and 98% and 99.7% | 101% and 102% and 89.1% | 98% and 106% and 97.2% | 96.9% and 97.6% and 92.6% | 97.4% and 100% and 94.8% | 56.7% and 49% and 51.9% | – | – | – | –
2 | – | > 10000 | > 10000 | Cc1[nH]c2ccc(F)cc2c1-c1nc2c3cccnc3c3ncccc3c2[nH]1 | 105% [middle of 12 runs] | 104% [middle of 12 runs] | 99.5% [middle of 12 runs] | 100% [middle of 12 runs] | 91.3% [middle of 12 runs] | 98% [middle of 12 runs] | – | – | – | –
3 | 154 nM and 151 nM and 189 nM | – | – | Cc1[nH]c2ccccc2c1CCNCc1ccc(/C=C/C(=O)NO)cc1 | 108% and 94.3% and 87.4% | – | 17.6% and 10.8% and 27.7% | – | – | – | 103% and 102% and 97.5% | 95.9% and 93.8% and 101% | 92.1% and 107% and 103% | 69.3% and 72.3% and 79.7%
4 | 35.6 nM and < 31.6 nM and 35.8 nM | – | – | Nc1ccn(C2OC(CO)C(O)C2(F)F)c(=O)n1 (stereo not drawn) | 53.3% and 42.5% and 53% | 21.3% and 23.8% and 25.2% | 16.9% and 9.13% and 18.7% | 17.8% and 10.8% and 15.7% | 14% and 12.8% and 17.5% | 17.1% and 11.2% and 17.3% | – | – | – | –
5 | 729 nM and 1280 nM and 523 nM | – | – | O=c1[nH]cc(F)c(=O)[nH]1 | 108% and 102% and 111% | 94.5% and 99.6% and 87% | 68.3% and 78.9% and 59.7% | 40.8% and 52.1% and 38% | 39.3% and 43.9% and 33.4% | 38.3% and 41.7% and 35.4% | – | – | – | –

More lines, now with the values behind:

Row | Structure (SMILES) | IC50 (curve of compound) | IC50 (compound alone, run of 04/16/2024) [nM] | IC50 (compound alone, run of 04/22/2024) [nM] | viability, T/C (compound 0.0316 µM) | viability, T/C (compound 0.1 µM) | viability, T/C (compound 0.316 µM) | viability, T/C (compound 1 µM) | viability, T/C (compound 3.16 µM) | viability, T/C (compound 10 µM) | viability, T/C (compound 0.000999 µM) | viability, T/C (compound 0.00316 µM) | viability, T/C (compound 0.00999 µM) | viability, T/C (compound 0.0999 µM)
6 | COc1cc(C2c3cc4c(cc3C(OC3OC5COC(C)OC5C(O)C3O)C3COC(=O)C23)OCO4)cc(OC)c1O (stereo not drawn) | 749 nM and 1560 nM and 781 nM | – | – | 106% and 97.9% and 101% | 93% and 95.6% and 92.9% | 72.8% (2×) and 63.2% | 41.4% and 57.3% and 43.4% | 29.8% and 39.9% and 37.9% | 24.3% and 21.6% and 20% | – | – | – | –
7 | COc1cccc2c1C(=O)c1c(O)c3c(c(O)c1C2=O)CC(O)(C(=O)CO)CC3OC1CC(N)C(O)C(C)O1 (stereo not drawn) | 411 nM and 470 nM and 878 nM | – | – | 99.9% and 99.3% and 97.8% | 86.1% and 94.3% and 81% | 45.8% and 52.1% and 60.8% | 33.6% and 31% and 57.7% | 24.8% and 24.6% and 27.7% | 1.26% and 0.35% and 6.04% | – | – | – | –
8 | COc1ncnc(C2CC2)c1-c1ncc2cnn(Cc3ccc(-c4nc(C(F)(F)F)cn4C(C)C)cc3)c2n1 | > 10000 nM | – | – | 113% and 96.4% and 110% | 108% and 109% and 97.3% | 99.2% and 103% and 102% | 116% and 99.7% and 105% | 106% and 100% (2×) | 106% and 92.4% and 93.6% | – | – | – | –
9 | Cc1cccc(N(C)C(=O)C2C(O)CCN2c2nc(C)cc(C(F)(F)F)c2C#N)c1 (stereo not drawn) | > 10000 nM | – | – | 91.4% and 99.2% and 101% | 106% and 94.5% and 102% | 94.1% and 103% and 102% | 94% and 96.9% and 105% | 102% and 98.7% and 113% | 102% and 92.6% and 103% | – | – | – | –
10 | Cc1cnc(CNC(=O)c2c(=O)c3ccc(N4CCCN(C)CC4)nc3n3c2sc2ccccc23)cn1 | – | – | – | 104% [middle of 12 runs] | – | – | – | 31.6% [middle of 12 runs] | 25.1% [middle of 12 runs] | – | – | – | –
11 | Cn1ncnc1[C@H]1c2n[nH]c(=O)c3cc(F)cc(c23)N[C@@H]1c1ccc(F)cc1 | > 316 nM | – | – | 88.4% and 99.1% and 102% | – | 99% and 97.3% and 99.4% | – | – | – | 101% and 92.4% and 96.4% | 90.2% and 96.7% and 93.7% | 104% and 101% and 99.2% | 106% and 100% (2×)
12 | O=C(NO)c1cnc(N2CCN(S(=O)(=O)c3ccc4ccccc4c3)CC2)nc1 | 339 nM and 331 nM and 380 nM | – | – | 101% and 114% and 112% | 96.7% and 102% and 94.6% | 53.2% (2×) and 60.8% | 1.44% and 0.67% and 2.74% | 0.23% and 0.21% and 0.06% | 0.22% and 0.09% | – | – | – | –
13 | O=C(c1cc(Cc2n[nH]c(=O)c3ccccc23)ccc1F)N1CCN(C(=O)C2CC2)CC1 | > 10000 nM | – | – | 96.6% and 106% and 92.3% | 105% and 99.2% and 101% | 98.7% and 104% and 96.1% | 96.9% and 105% and 96.2% | 102% and 105% and 98.3% | 67.2% and 66.3% and 73.1% | – | – | – | –
